Tested on: SARS-CoV-2 spike pseudovirus
Assay: organism not typed
Format: cell-based

CC1(C)[C@@H](O[C@H]2O[C@H](C(=O)O)[C@@H](O)[C@H](O)[C@H]2O[C@@H]2O[C@H](C(=O)O)[C@@H](O)[C@H](O)[C@H]2O)CC[C@]2(C)[C@H]3C(=O)C=C4[C@@H]5C[C@@](C)(C(=O)O)CC[C@]5(C)CC[C@@]4(C)[C@]3(C)CC[C@@H]12 [Glycyrrhizic acid] gave an inhibition at 50 µM (read-out: Inhibition rate (%), 50 µM) of 4.01 ± 7.03% and an inhibition at 100 µM (read-out: Inhibition rate (%), 100 µM) of 11.2 ± 6.96%.

Cc1cc(-c2ccc(/N=N/c3ccc4c(S(=O)(=O)O)cc(S(=O)(=O)O)c(N)c4c3O)c(C)c2)ccc1/N=N/c1ccc2c(S(=O)(=O)O)cc(S(=O)(=O)O)c(N)c2c1O [Evans blue] gave an IC50 (read-out: IC50 value) of 26.9 µM.

From PMC9484358 (Archives of Pharmacal Research, 2022)
